According to patent US9908893B2 (Latvian Institute of Organic Synthesis, priority 2013, dated 2018):

How the values were obtained:
[1] = Basal toxicity test, neutral red, alternative LD50 calculated from IC50; conditions: mouse, LD50, alternative LD50 calculated by formula from IC50 in NIH 3T3 cells
Experimental: (§1) A low therapeutic index of chemotherapy agents is due to affecting not only cancer formation but also normal cells.
(§2) 9,000 NIH 3T3 cells/well were placed into 96-well plates for 24 h and then exposed to the test compound over a range of eight concentration (1-1000 μg/ml) for 24 h. Upon that, the cells were incubated with the neutral red dye for 4 h and then OD was determined at 540 nm. […] The IC50 values were calculated using the program Graph Pad Prism® 4.0

[2] = system: NIH 3T3 (normal mouse fibroblasts); experiment: as above; conditions: alternative LD50 calculated by formula from IC50 in NIH 3T3 cells, 24 h
Experimental: as §1, §2

[3] = system: A7R5 (rat aorta smooth muscle) cells; experiment: Intracellular Ca2+ measurements, Fluo-4 NW Calcium Assay Kit, KCl-induced [Ca2+]i increase; assay type: cell-based; conditions: for IC50: Rattus norvegicus, A7R5, read-out: Ca^2+ A7R5, IC50; for Ca^2+ antagonist effect compared with Verapamil: relative to Verapamil; for Ca^2+ antagonist effect compared with Verapamil / Ca^2+ A7R5, IC50: A7R5 cells; for Ca^2+ A7R5, IC50: KCl (50 mM) induced [Ca2+]i increase, compounds 0.8 to 100 μM
Experimental: Changes in intracellular [Ca^2+] concentration were studied using A7R5 (rat aorta smooth muscle) cells and Fluo-4 NW Calcium Assay Kit (“Invitrogen”, Sweden) according to manufacturer's instructions.
Changes in intracellular [Ca^2+]i concentration were studied using Fluo-4 NW Calcium Assay Kit (“Invitrogen”, Sweden) accordingly to manufacturer's instructions. The A7R5 (rat aorta smooth muscle) cells were grown at 37° C. in a humidified atmosphere with 5% CO2/95% air in DMEM medium containing 2 mM glutamine and supplemented with 10% FBS. The cells were seeded into 96 well plate at 10,000 cells/well and incubated for 72 h. The cells were loaded with […] for 45 min. The Fura-4NW loaded cells were pre-incubated in the dark for 15 minutes with tested compounds at concentrations from 0.8 to 100 μM. Then A7R5 cells were pre-treated with 1.5 mM CaCl2 for 5 minutes and KCl (50 mM) was added to A7R5 cells to induce [Ca^2+]i increase. Amlodipine, the well-known calcium channel inhibitor was used as the positive control.

[4] = molecular target: T1, BCRP1 (Homo sapiens, UniProt Q9UNQ0); experiment: cell-based; conditions: for MDR, EC50, BCRP1: Hoechst 33342, mitoxantrone resistant MES-SA/MX2 cells
T1 sequence (Q9UNQ0 1-655): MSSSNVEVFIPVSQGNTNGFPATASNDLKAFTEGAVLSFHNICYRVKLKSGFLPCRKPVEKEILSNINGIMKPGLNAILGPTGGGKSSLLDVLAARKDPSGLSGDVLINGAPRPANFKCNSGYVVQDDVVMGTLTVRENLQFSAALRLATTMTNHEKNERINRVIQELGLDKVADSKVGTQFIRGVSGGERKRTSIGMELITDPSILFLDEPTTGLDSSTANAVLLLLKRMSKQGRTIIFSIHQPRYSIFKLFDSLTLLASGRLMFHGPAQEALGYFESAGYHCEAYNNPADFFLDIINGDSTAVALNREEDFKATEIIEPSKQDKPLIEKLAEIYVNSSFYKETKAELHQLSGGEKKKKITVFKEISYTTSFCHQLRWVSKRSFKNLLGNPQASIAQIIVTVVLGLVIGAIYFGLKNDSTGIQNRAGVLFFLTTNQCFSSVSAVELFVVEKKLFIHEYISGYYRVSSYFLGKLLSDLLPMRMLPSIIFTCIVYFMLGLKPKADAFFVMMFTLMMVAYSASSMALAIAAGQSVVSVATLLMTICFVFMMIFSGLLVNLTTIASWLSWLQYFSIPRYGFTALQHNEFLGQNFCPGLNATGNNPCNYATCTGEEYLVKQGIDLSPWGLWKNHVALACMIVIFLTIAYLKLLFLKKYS
Experimental: (§3) Thieno[2,3-b]pyridines of the formula (I) were tested to reveal MDR-blocking activity.
About 50,000 cells/well of the MESSA and MES-SA/MX2 were seeded into the 96-well plates and incubated for 24 h. The MDR modulators were incubated with the cells for 15 min. […] The EC50 values were calculated using the program Graph Pad Prism® 4.0

[5] = molecular target: P-glycoprotein (P-gp) (Homo sapiens, UniProt P08183); experiment: Measurement of P-glycoprotein activity: rhodamine 123 accumulation in MES-SA and MES-SA/Dx5 cells; conditions: for MDR, EC50, P-gp: rhodamine 123 accumulation, doxorubicin resistant MES-SA/Dx5 cells; for inhibition of MDR transport proteins (P-gp, MRP1, BCRP1), summary in words: summary of the P-gp, MRP1 and BCRP1 efflux assays
Experimental: as §3
About 50,000 cells/well of the human uterine sarcoma cell line MESSA and MES-SA/Dx5 were seeded into the 96-well plates and incubated for 24 h. The MDR modulators were incubated with the cells for 15 min. […] The EC50 values were calculated using the program Graph Pad Prism® 4.0.

[6] = molecular target: MRP1 (Homo sapiens, UniProt P33527); experiment: cell-based; conditions: for MDR, EC50, MRP1: calcein AM assay, DOX resistant H69AR cells
Experimental: as §3
About 60,000 cells/well of the human lung carcinoma cell line H69 and H69AR were seeded into the 96-well plates and incubated for 24 h. The compounds were incubated with the cells for 15 min. […] The EC50 values was calculated using the program Graph Pad Prism® 4.0

Sequence of P-glycoprotein (P-gp) (P08183 whole entry): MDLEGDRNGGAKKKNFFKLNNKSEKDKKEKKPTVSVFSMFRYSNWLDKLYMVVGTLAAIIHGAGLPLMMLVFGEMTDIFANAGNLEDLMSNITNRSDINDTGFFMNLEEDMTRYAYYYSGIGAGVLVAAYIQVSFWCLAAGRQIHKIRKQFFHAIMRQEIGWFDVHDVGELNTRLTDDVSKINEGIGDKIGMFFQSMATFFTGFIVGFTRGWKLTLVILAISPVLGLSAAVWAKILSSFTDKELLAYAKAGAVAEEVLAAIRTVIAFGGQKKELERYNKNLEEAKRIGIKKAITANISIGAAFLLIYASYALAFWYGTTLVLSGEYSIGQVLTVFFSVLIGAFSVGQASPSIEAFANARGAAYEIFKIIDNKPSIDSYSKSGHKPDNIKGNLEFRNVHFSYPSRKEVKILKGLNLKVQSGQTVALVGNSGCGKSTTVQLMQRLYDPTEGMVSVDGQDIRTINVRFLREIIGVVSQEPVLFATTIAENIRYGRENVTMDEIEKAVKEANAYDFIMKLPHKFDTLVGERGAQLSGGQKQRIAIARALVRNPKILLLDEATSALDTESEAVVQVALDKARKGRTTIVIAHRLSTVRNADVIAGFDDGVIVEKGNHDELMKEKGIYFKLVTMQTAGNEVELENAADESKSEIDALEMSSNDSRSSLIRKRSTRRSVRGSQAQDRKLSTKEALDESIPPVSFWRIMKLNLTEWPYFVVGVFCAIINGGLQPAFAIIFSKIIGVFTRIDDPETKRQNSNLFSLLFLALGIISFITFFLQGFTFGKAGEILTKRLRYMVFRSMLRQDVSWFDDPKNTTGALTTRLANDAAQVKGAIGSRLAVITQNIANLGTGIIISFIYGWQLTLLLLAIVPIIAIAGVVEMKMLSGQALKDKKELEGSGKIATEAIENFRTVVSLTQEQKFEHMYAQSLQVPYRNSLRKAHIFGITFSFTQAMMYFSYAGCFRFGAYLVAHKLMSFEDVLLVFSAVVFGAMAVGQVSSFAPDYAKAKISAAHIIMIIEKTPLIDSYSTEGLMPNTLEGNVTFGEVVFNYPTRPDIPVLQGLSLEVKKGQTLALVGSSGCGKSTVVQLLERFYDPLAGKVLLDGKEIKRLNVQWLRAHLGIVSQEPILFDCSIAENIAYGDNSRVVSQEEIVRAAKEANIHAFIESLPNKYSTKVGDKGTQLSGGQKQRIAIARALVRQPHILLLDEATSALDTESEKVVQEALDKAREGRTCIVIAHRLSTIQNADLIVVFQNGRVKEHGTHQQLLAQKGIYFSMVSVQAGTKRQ
Sequence of MRP1 (P33527 whole entry): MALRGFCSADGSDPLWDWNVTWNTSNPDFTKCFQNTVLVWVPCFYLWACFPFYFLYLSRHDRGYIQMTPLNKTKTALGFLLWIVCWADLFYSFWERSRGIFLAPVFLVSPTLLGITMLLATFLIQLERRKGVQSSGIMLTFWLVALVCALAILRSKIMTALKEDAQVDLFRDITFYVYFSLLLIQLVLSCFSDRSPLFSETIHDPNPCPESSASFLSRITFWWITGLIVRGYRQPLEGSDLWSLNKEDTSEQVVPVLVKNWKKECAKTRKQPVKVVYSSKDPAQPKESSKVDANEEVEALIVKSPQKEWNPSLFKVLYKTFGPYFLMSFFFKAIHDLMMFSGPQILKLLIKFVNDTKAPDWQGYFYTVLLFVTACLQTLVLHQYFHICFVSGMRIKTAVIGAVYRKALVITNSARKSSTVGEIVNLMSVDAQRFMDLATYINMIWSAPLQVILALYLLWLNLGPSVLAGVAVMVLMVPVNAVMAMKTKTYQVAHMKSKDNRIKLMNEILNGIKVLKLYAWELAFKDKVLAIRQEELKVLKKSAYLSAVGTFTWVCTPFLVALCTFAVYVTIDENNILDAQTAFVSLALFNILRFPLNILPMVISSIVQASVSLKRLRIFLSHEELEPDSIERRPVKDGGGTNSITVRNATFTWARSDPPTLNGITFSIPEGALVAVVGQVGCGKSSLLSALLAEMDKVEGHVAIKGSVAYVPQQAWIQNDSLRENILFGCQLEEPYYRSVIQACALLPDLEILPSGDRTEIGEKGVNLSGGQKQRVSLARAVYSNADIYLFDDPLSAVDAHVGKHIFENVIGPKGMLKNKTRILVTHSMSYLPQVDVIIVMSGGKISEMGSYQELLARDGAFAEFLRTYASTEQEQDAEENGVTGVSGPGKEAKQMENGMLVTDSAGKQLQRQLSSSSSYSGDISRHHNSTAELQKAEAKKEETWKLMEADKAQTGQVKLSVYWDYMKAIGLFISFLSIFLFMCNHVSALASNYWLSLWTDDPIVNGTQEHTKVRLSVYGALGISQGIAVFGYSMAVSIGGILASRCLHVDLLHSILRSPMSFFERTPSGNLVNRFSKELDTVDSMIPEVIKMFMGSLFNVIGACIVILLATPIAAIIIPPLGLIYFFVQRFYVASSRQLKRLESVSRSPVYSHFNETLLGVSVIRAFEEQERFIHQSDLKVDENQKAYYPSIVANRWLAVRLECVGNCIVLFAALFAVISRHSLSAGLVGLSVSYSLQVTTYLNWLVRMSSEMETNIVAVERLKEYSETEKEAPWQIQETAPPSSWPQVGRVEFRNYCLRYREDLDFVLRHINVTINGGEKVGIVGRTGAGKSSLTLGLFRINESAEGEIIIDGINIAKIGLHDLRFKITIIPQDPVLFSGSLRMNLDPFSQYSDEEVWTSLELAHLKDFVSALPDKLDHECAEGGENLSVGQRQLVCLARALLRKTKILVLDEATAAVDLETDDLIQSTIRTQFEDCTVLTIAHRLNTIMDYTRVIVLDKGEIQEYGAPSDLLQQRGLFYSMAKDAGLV

SMILES | LD50 at 24 h [1] [mg/kg] | IC50 [3] [µM] | Ca^2+ antagonist effect compared with Verapamil [3] | further results
COC(=O)c1c(C)nc2sc(C(=O)c3ccc(OC)cc3)c(N)c2c1-c1ccc(OC)c(OC)c1 [Compound 6, 3-Amino-4-(3,4-dimethoxyphenyl)-2-(4-methoxybenzoyl)-6-methyl-thieno[2,3-b]-pyridine-5-carboxylic acid methyl ester] | > 2000 | 6 ± 0.8 | more than ten times lower | LD50 [2]: 2808 mg/kg
CCOC(=O)c1c(C)nc2sc(C(=O)c3ccc(OC)cc3)c(N)c2c1-c1ccc2c(c1)OCO2 [Compound 42, 3-Amino-4-(benzo[1,3]dioxol-5-yl)-2-(4-methoxybenzoyl)-6-methylthieno[2,3-b]-pyridine-5-carboxylic acid ethyl ester] | 2010 | 18 ± 1 | – | EC50 [4]: 2300 ± 400 nM; EC50 [5]: 20.4 ± 0.1 µM; EC50 [6]: 24.8 ± 1.2 µM
COC(=O)c1c(C)nc2sc(C(=O)c3ccc4ccccc4c3)c(N)c2c1-c1cc(OC)c(OC)c(OC)c1 [Compound 41, 3-Amino-6-methyl-2-(naphthalene-2-carbonyl)-4-(3,4,5-trimethoxyphenyl)-thieno[2,3-b]pyridine-5-carboxylic acid methyl ester] | > 2000 | 18 ± 1.4 | – | EC50 [4]: 800 ± 200 nM; EC50 [5]: 10.5 ± 0.7 µM; MDR, EC50, MRP1 [6]: No effect
CN(C)C(=O)CCSC(SCCC(=O)O)c1cccc(/C=C/c2ccc3ccc(Cl)cc3n2)c1 (stereo not shown) [MK-571, reference compound] | 752 | – | – | MDR, EC50, P-gp [5]: No effect; Ca^2+ A7R5, IC50 [3]: No effect
CCOC(=O)c1c(C)nc2sc(C(=O)c3ccc(OC)cc3OC)c(N)c2c1-c1cc(OC)c(OC)c(OC)c1 [Compound 25, 3-Amino-2-(2,4-dimethoxybenzoyl)-6-methyl-4-(3,4,5-trimethoxyphenyl)-thieno[2,3-b]pyridine-5-carboxylic acid ethyl ester] | > 2000 | 46 ± 1.4 | more than ten times lower | LD50 [2]: >2000 mg/kg
COC(=O)c1c(C)nc2sc(C(=O)c3ccc(OC)cc3)c(N)c2c1-c1cc(OC)c(OC)c(OC)c1 [Compound 10, 3-Amino-2-(4-methoxybenzoyl)-6-methyl-4-(3,4,5-trimethoxyphenyl)thieno[2,3-b]pyridine-5-carboxylic acid methyl ester] | > 2000 | 9 ± 0.7 | more than ten times lower | inhibition of MDR transport proteins (P-gp, MRP1, BCRP1), summary in words [5]: inhibit three MDR transport proteins: P-gp, MRP1 and BCRP1
COc1ccc(C(=O)c2sc3nc(-c4cc(OC)c(OC)c(OC)c4)cc(-c4cc(OC)c(OC)c(OC)c4)c3c2N)cc1 [Compound 48, 3-Amino-4,6-bis-(3,4,5-trimethoxyphenyl)-2-(4-methoxybenzoyl)thieno[2,3-b]-pyridine] | 3080 | – | – | MDR, EC50, BCRP1 [4]: No effect; EC50 [5]: 32.5 ± 2.1 µM; MDR, EC50, MRP1 [6]: No effect; Ca^2+ A7R5, IC50 [3]: No effect
COc1cc(-c2cc(-c3cc(OC)c(OC)c(OC)c3)c3c(N)c(C(=O)c4ccc(Cl)cc4)sc3n2)cc(OC)c1OC [Compound 47, 3-Amino-4,6-bis-(3,4,5-trimethoxyphenyl)-2-(4-chlorobenzoyl)thieno[2,3-b]-pyridine] | > 2000 | – | – | EC50 [4]: 14500 ± 3500 nM; EC50 [5]: 31.4 ± 0.8 µM; MDR, EC50, MRP1 [6]: No effect
CCOC(=O)c1c(C)nc2sc(C(=O)c3ccc(OC)cc3)c(N)c2c1-c1ccco1 [Compound 43, 3-Amino-4-(furan-2-yl)-2-(4-methoxybenzoyl)-6-methylthieno[2,3-b]pyridine-5-carboxylic acid ethyl ester] | – | – | – | MDR, EC50, BCRP1 [4]: No effect; MDR, EC50, P-gp [5]: No effect; MDR, EC50, MRP1 [6]: No effect
COCCOC(=O)c1c(C)nc2sc(C(=O)c3cccc(OC)c3)c(N)c2c1-c1cc(OC)c(OC)c(OC)c1 [Compound 33, 3-Amino-2-(3-methoxybenzoyl)-6-methyl-4-(3,4,5-trimethoxyphenyl)thieno[2,3-b]-pyridine-5-carboxylic acid 2-methoxyethyl ester] | > 2000 | 6.2 ± 0.7 | – | inhibition of MDR transport proteins (P-gp, MRP1, BCRP1), summary in words [5]: selectively inhibit P-gp and BCRP1
CCOC(=O)c1c(C)nc2sc(C(=O)c3ccc(OC)cc3)c(N)c2c1-c1ccc(N(C)C)cc1 [Compound 29, 3-Amino-4-(4-dimethylaminophenyl)-2-(4-methoxybenzoyl)-6-methylthieno[2,3-b]-pyridine-5-carboxylic acid ethylester] | > 2000 | 35 ± 3 | – | inhibition of MDR transport proteins (P-gp, MRP1, BCRP1), summary in words [5]: selectively inhibit P-gp and BCRP1
CCOC(=O)c1c(C)nc2sc(C(=O)c3ccc(OC)cc3)c(N)c2c1-c1cc(OC)c(OC)c(OC)c1 [Compound 24, 3-Amino-2-(4-methoxybenzoyl)-6-methyl-4-(3,4,5-trimethoxyphenyl)thieno[2,3-b]-pyridine-5-carboxylic acid ethyl ester] | > 2000 | 19 ± 3 | more than ten times lower | LD50 [2]: >2000 mg/kg
COC(=O)c1c(C)nc2sc(C(=O)c3ccc(OC)cc3OC)c(N)c2c1-c1cc(OC)c(OC)c(OC)c1 [Compound 11, 3-Amino-2-(2,4-dimethoxybenzoyl)-6-methyl-4-(3,4,5-trimethoxyphenyl)thieno[2,3-b]pyridine-5-carboxylic acid methyl ester] | > 2000 | 18 ± 1 | more than ten times lower | inhibition of MDR transport proteins (P-gp, MRP1, BCRP1), summary in words [5]: inhibit three MDR transport proteins: P-gp, MRP1 and BCRP1
CCOC(=O)c1c(C)nc2sc(C(=O)c3ccc(OC)cc3)c(N)c2c1-c1ccc(O)cc1 [Compound 14, 3-Amino-4-(4-hydroxyphenyl)-2-(4-methoxybenzoyl)-6-methylthieno[2,3-b]-pyridine-5-carboxylic acid ethyl ester] | 231 | 4.3 ± 0.7 | – | –
COC(=O)c1c(C)nc2sc(C(=O)c3ccc(F)cc3)c(N)c2c1-c1cc(OC)c(OC)c(OC)c1 [Compound 8, 3-Amino-2-(4-fluorobenzoyl)-6-methyl-4-(3,4,5-trimethoxyphenyl)thieno[2,3-b]-pyridine-5-carboxylic acid methyl ester] | > 2000 | 3 ± 0.8 | – | –
CCOC(=O)c1c(C)nc2sc(C(=O)c3ccc(OC)cc3)c(N)c2c1-c1ccc(O)c(OC)c1 [Compound 16, 3-Amino-4-(4-hydroxy-3-methoxyphenyl)-2-(4-methoxybenzoyl)-6-methyl-thieno[2,3-b]pyridine-5-carboxylic acid ethyl ester] | > 2000 | 3.7 ± 0.4 | more than ten times lower | –
